In patent US20140303092A1 (CHIMERIX, INC., priority 2011, published 2014):
Marks after values point to notes of the source that are not given here.

Columns and labels:
[1] = cynomolgus monkey, in vivo
CYP3A = assay type: in vitro ADME
[2] = mouse, in vivo
[3] = rat, in vivo
Description: AME of ^14C-HDP-CDV Following Oral Administration to Bile Duct-Intact and Bile Duct-Cannulated Rats. In order to more fully define the CYP enzymes involved in HDP-CDV elimination, the disposition and metabolism of ^14C-radiolabeled-HDP-CDV was studied in bile-duct cannulated rats either with or without pretreatment with the broad-spectrum CYP inhibitor aminobenzotriazole (ABT). This study has completed the in-life phase and sample analysis is ongoing.

[4] = set-up: species or system human (healthy subjects); details: human, in vivo
Description: For this reason, in Study HDP-CDV-201, HDP-CDV was administered to fasted subjects. […] For this reason, in future studies, HDP-CDV may be administered with a food whenever possible.
However, the clinical significance of these findings is currently unknown and anecdotal reports indicate that gastrointestinal symptoms during HDP-CDV therapy may be mitigated by administration of HDP-CDV with food. […] In Study HDP-CDV-301, HDP-CDV is dosed with food; there is no restriction on the amount or type of food eaten. Therefore, evidence of the effectiveness of HDP-CDV is established in Study […] in subjects who receive HDP-CDV in the fed state.

[5] = Study HDP-CDV-350: safety, adverse events and disposition; assay type: in vivo, human (allogeneic HCT recipients)
Description: Subjects underwent extensive safety monitoring, including routine safety laboratory assessments, physical examination, and vital sign measurements at regular intervals. In addition, subjects were monitored for viral DNA burden in plasma (DNAemia) and other affected compartments (e.g., urine, stool, CSF, etc.). Assessments were performed weekly for the first month, every 1 or 2 weeks for the next 2 months, and monthly thereafter for as long as treatment was continued. Subjects were monitored for adverse events (AEs) and for selected concomitant medication throughout the entire study, including the 1 month posttreatment follow-up period.
Given that subjects had to have a serious or life-threatening disease and/or to have failed other available treatment options in order to qualify for this study, there was an expected high frequency of AEs in the study population overall. With the exception of diarrhea, with or without associated GI signs and symptoms, the vast majority of AEs were attributed to the underlying conditions of the subjects and not to HDP-CDV administration.

clinical = details: human, in vivo
Description: The pharmacokinetics of HDP-CDV (oral solution) were investigated in a dose-escalation study in healthy volunteers (Study HDP-CDV-102) in which single doses of up to 2 mg/kg and multiple doses (3 doses, each separated by 6 days) of up to 1 mg/kg were administered.

CMV = test: In vitro antiviral activity in cell culture, CMV; assay type: cell-based, cytomegalovirus; details: dsDNA viruses including CMV and AdV
[6] = test system: human liver microsomes and recombinant human CYP enzymes; test: Study HDP-CDV-NCA-049: in vitro CYP reaction phenotyping, liver microsomes; assay type: in vitro ADME; details: liver microsomes from multiple species, previous studies
Description: This study is expected to definitively quantify the major human metabolites arising from specific CYP enzymes and inform the need for a clinical DDI study investigating the effect of inhibition of these CYP enzymes on the PK of HDP-CDV.

[7] = Study HDP-CDV-106: safety and PK in subjects with impaired hepatic function; assay type: in vivo, human
Description: Subjects with moderate hepatic impairment and matched healthy control subjects with normal hepatic function were enrolled and dosed first in Cohort 1, each receiving a single 200 mg dose of HDP-CDV under fasting conditions. The safety, tolerability and PK data from these subjects was reviewed prior to initiating dosing in subjects with severe hepatic impairment in Cohort 2. The study was conducted at four centers in the USA. Up to approximately 24 male and female subjects were planned to be enrolled in this study, including 8 subjects with moderate hepatic impairment and 8 matched healthy control subjects in Cohort 1 and 8 subjects with severe hepatic impairment in Cohort 2. The severity of hepatic impairment was assessed according to the Child-Pugh-Turcotte (CPT) score. Assessments are as follows: CPT Class B (moderate impairment) has a score of 7 to 9 points; and Class C (severe impairment) has a score of >9 points. For the purposes of this study, Cohort 2 subjects were required to have a CPT score of 10 or 11.

AdV = test: In vitro antiviral activity in cell culture, AdV; assay type: cell-based; details: unidentified adenovirus
P-gp = P-gp (Homo sapiens, UniProt P08183); test: P-gp inhibition in vitro; assay type: in vitro ADME; details: in vitro results
Sequence of P-gp (P08183 whole entry): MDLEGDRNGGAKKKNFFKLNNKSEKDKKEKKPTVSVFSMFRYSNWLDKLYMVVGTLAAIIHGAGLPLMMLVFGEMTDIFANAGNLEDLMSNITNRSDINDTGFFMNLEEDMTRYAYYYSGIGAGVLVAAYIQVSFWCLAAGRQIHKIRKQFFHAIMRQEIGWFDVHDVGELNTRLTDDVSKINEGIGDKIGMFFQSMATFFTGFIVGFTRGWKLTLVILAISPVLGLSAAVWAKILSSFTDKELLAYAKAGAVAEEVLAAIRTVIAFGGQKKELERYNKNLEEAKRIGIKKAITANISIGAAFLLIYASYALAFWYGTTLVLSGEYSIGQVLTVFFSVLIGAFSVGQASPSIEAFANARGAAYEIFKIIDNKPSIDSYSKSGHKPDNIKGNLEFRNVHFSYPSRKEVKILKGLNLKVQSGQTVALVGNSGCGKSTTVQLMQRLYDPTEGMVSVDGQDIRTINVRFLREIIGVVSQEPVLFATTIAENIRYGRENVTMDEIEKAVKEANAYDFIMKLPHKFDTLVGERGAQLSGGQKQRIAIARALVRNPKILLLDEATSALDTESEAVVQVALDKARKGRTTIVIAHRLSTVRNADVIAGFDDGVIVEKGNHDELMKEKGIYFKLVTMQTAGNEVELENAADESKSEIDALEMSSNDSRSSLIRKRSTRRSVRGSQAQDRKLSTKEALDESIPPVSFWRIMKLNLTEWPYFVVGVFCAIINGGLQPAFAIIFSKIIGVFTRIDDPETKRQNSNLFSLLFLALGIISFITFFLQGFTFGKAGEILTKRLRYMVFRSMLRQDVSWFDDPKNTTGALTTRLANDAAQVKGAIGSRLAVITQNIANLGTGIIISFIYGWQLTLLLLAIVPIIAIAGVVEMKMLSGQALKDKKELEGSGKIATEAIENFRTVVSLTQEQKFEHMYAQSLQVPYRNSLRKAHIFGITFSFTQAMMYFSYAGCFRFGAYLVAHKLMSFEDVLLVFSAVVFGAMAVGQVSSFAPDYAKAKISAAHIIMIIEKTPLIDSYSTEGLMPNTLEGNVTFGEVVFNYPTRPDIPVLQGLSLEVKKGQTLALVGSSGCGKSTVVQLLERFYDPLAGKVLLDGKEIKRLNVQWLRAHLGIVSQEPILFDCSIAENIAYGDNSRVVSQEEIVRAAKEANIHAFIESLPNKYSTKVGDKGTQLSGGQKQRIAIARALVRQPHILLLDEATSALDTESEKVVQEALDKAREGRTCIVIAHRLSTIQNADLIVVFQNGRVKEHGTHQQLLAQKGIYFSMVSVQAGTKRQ
Description: Due to this potential interaction, digoxin is excluded medication in Study HDP-CDV-301 (see Example 5).

[8] = set-up: species or system human; details: in vivo
Description: Plasma samples were collected during the study to assess weekly trough concentrations of HDP-CDV and CDV. […] There was no evidence for increasing weekly trough CDV plasma concentrations; therefore, plasma concentrations are not presented in this document.

VZV = test: In vitro antiviral activity in cell culture, VZV; assay type: cell-based, varicella-zoster virus; details: Human alphaherpesvirus 3
[9] = human, in vivo
Description: ESRD patients not on dialysis have no ability to eliminate the metabolite CDV. As such, specific labeling for ESRD patients not currently on dialysis may not be sought. Furthermore, such subjects are/may be excluded from future studies with HDP-CDV.

[10] = in vivo
[11] = 16 subjects, 100 mg BIW adults or 2 mg/kg BIW pediatrics

CCCCCCCCCCCCCCCCOCCCOP(=O)(O)COC(CO)Cn1ccc(N)nc1=O (stereo not drawn) [HDP-CDV]
ALT change [1]: dose-related increases in ALT which were quickly reversible after cessation of dosing
inhibition of CYP3A activity in vitro (CYP3A): moderate inhibitor
ALT increases in individual animals [2]: up to 5 fold
administered radioactivity excreted in bile [3]: ~8%
administered radioactivity excreted in feces [3]: ~57%
administered radioactivity excreted in urine [3]: approximately 30%
radioactivity excreted in bile [3]: 3%
radioactivity excreted in feces [3]: 55%
radioactivity excreted in urine [3]: 28%
recovery of radioactivity [3]: ≥ 90%
reduction of peak plasma concentration (Cmax) [4]: 48%
reduction of systemic exposure (AUCinf) [4]: 28%
systemic exposure, tablet lower than oral solution ([4]; po): about 13%
Reason for Premature Study Discontinuation: Death [5, 11]: 7 (44%)
Reasons for Premature HDP-CDV Treatment Discontinuation: Death [5, 11]: 4 (25%)
Reasons for Premature HDP-CDV Treatment Discontinuation: Other ([5]; 16 subjects, both completed the maximum 6 months treatment without resolution of CMV infection): 2 (13%)^i
Treatment-related Adverse Events: Colitis ([5]; human, in vivo): 1 (6%) No. of Subjects (%)
Treatment-related Adverse Events: Decreased appetite ([5]; human, in vivo): 1 (6%) No. of Subjects (%)
Treatment-related Adverse Events: Diarrhea ([5]; human, in vivo): 12 (75%) No. of Subjects (%)
Treatment-related Adverse Events: Flatulence ([5]; human, in vivo): 1 (6%) No. of Subjects (%)
Treatment-related Adverse Events: Liver function tests abnormal ([5]; human, in vivo): 3 (19%) No. of Subjects (%)
Treatment-related Adverse Events: Nausea ([5]; human, in vivo): 2 (13%) No. of Subjects (%)
Treatment-related Adverse Events: Neutropenia ([5]; human, in vivo): 1 (6%) No. of Subjects (%)
tolerability ([5]; in vivo): generally well-tolerated
Cmax and AUC versus dose (clinical): increased approximately in proportion to dose
accumulation on Day 12 (clinical): negligible accumulation
quantifiable in urine (clinical): not quantifiable in the urine
half-life (clinical; 1 mg/kg): 27 h
time of Cmax after administration (clinical; po): 2 to 3 h
higher potency in comparison to cidofovir, ganciclovir and other nucleoside analogs (CMV): 100 to 1000 fold
in vitro turnover [6]: low in vitro turnover
effect of hepatic impairment on percentage bound to plasma protein ([7]; human, in vivo): did not affect
need for dose adjustment in hepatic disease ([7]; moderate or severe hepatic disease): no HDP-CDV dose adjustment is warranted
EC50 (AdV): 0.02 µM
inhibition of P-gp (P-gp): may inhibit P-gp
weekly trough HDP-CDV concentrations [8]: near or below the lower limit of quantification
EC50 (VZV): 0.0004 µM
need for dosage adjustment in renal impairment [9]: no adjustment of HDP-CDV dosage is required
Minor increases in ALT [10]: 2-5 fold
